Measurements taken from EP4585599A1, “NITROGEN-CONTAINING FUSED RING COMPOUND, INTERMEDIATE THEREOF, PREPARATION METHOD THEREFOR AND USE THEREOF” (Hangzhou Synrx Therapeutics Biomedical Technology Co., Ltd., priority 2022, dated 2024).
Converted amounts (≈) assume the structure as drawn. “And” between values parts separate entries of the source, which are not always exact repeats. Equal values may be shown once. Read-outs that look alike come from different tables or passages of the source.

How the values were obtained:
[1] = target: T1, helicase domain of the Pol θ protein (Homo sapiens, UniProt O75417); assay: Biochemical Activity Assay (ADP Glo Assay) of Pol θ inhibitor, ATPase activity
T1 construct: The helicase domain of the Pol θ protein was purified from insect protein expression system; made in house; host or cells: insect protein expression system
T1 sequence (O75417 102-554 limits assumed): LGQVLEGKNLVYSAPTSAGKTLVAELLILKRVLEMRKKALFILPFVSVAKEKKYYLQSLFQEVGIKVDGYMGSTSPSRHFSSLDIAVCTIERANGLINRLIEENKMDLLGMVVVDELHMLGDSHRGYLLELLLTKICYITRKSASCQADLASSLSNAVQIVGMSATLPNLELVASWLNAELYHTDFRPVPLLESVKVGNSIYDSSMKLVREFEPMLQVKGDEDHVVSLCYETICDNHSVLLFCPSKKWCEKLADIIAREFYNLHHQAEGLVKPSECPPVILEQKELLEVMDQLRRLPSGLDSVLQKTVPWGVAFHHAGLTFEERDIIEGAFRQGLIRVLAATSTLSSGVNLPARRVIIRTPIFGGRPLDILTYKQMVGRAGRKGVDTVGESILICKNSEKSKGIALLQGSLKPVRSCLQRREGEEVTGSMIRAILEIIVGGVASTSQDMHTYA

Solubility assay = conditions: pH 7.4, aqueous buffer, kinetic from dmso stock; for solubility at 2 h: phosphate buffer
cells = conditions: Homo sapiens, DLD-1, 240 h
in vitro = conditions: mouse, microsomes, pH 7.4
[2] = Mouse PK assay after oral administration; conditions: for MRT / half-life / bioavailability: mouse, po; for MRT / half-life / Area under curve (0-t; hr * ng/mL) / Peak concentration / bioavailability: plasma; for Time to peak / Area under curve (0-t; hr * ng/mL) / Peak concentration: mice, oral
[3] = read-out: Cell viability assay IC50
[4] = Metabolic stability of mouse liver microsome assay; conditions: liver microsomes, pH 7.4
[5] = mouse, microsomes
[6] = ADP-Glo assay, ATPase activity of Pol θ helicase domain, ssDNA substrate; read-out: Biochemical assay IC50
[7] = ADP-Glo, ssDNA substrate, 60 min at room temperature; read-out: Biochemical assay IC50
[8] = read-out: Cell viability assay IC50 (nM), CTG assay, CellTiter Glo, read on Day 10, cell line not given
[9] = read-out: Cell viability assay IC50 (nM), CTG on Day 10, cell line not given (method: DLD1 and DLD1^-/- cells)
[10] = read-out: Cell viability assay IC50 (nM)
[11] = read-out: Biochemical assay IC50

Compound	IC50 [1, 6] [nM]	solubility at 2 h (Solubility assay) [µM]	half-life at 1 µM (in vitro) [h]	Time to peak ([2]; administration dose 30 mg/kg) [h]	Area under curve (0-t; hr * ng/mL) ([2]; administration dose 30 mg/kg) [µg·h/mL]	Peak concentration ([2]; administration dose 30 mg/kg) [ng/mL]	MRT ([2]; male, ICR, 30 mg/kg) [h]	bioavailability ([2]; male, ICR, 30 mg/kg) [%]	half-life ([2]; male, ICR, 30 mg/kg) [h]	IC50 (cells; [8]) [nM]	also measured
COc1cnc(Cl)cc1-c1cc(C)ncc1C(=O)Nc1nc2ccc(N3CCC(O)CC3)nc2s1 [Example 46]	8.31	61.5 (≈ 31.4 µg/mL)	7.9	–	–	–	–	–	–	–	IC50 [1, 7]: < 50 nM; IC50 [3]: 60.7 nM; IC50 (cells; [10]): < 100 nM; MRT ([2]; male, ICR, 25 mg/kg): 4.13 h; bioavailability ([2]; male, ICR, 25 mg/kg): 127%; half-life ([2]; male, ICR, 25 mg/kg): 1.59 h; Time to peak ([2]; administration dose 25 mg/kg): 2.0 h; Area under curve (0-t; hr * ng/mL) ([2]; administration dose 25 mg/kg): 46.041 µg·h/mL; Peak concentration ([2]; administration dose 25 mg/kg): 7217 ng/mL
COc1cnc(Cl)cc1-c1cc(C)ncc1C(=O)Nc1nc2cnc(-c3c(C)noc3C)cc2s1 [Example 155]	–	–	–	1.0	321.917	43083	–	–	–	–	IC50 ([1]; read-out: Biochemical assay IC50; ADP-Glo assay, ATPase activity of Pol θ helicase domain, ssDNA substrate): 5.75 nM; IC50 (cells; [10]): 19.2 nM; solubility (Solubility assay; 0.1 m sodium phosphate buffer): 7.81 µM (≈ 3.96 µg/mL); MRT ([2]; 30 mg/kg): 4.56 h; half-life ([2]; 30 mg/kg): 2.26 h; half-life at 1 µM [4]: 11.6 h
COc1cnc(Cl)c(F)c1-c1cc(C)ncc1C(=O)Nc1nc2cnc(-c3c(C)nnn3C)cc2s1 [Example 172]	2.84	63.7 (≈ 33.4 µg/mL)	–	0.25	429.051	43555	5.91	206	5.1	–	Half-life (T1/2, min) [5]: ∞
COc1cnc(Cl)c(F)c1-c1cc(C)ncc1C(=O)Nc1nc2cnc(-c3c(C)nnn3C)c(F)c2s1 [Example 217]	3.63	82.6 (≈ 44.8 µg/mL)	–	0.67	852.39	156130	3.95	259	2.16	< 1.52	Half-life (T1/2, min) [5]: ∞
COc1cnc(Cl)c(F)c1-c1cc(C)ncc1C(=O)Nc1nc2ccccc2s1 [Examples 39]	–	–	–	–	–	–	–	–	–	–	IC50 [1, 11]: < 50 nM and 8.57 nM; IC50 [3]: 108 nM; IC50 (cells; [10]): 100 to 500 nM
COc1cnc(Cl)cc1-c1cc(C)ncc1C(=O)Nc1nc2ccc(C3(O)CCC(O)CC3)cc2s1 (stereo not drawn) [Examples 89]	–	–	–	–	–	–	–	–	–	–	IC50 [1, 11]: < 50 nM and 36.7 nM; IC50 [3]: 171 nM; IC50 (cells; [10]): 100 to 500 nM

More lines, main results first:

IC50 [1, 6] [nM]	solubility at 2 h (Solubility assay) [µM]	half-life at 1 µM (in vitro) [h]	Time to peak ([2]; administration dose 30 mg/kg) [h]	Area under curve (0-t; hr * ng/mL) ([2]; administration dose 30 mg/kg) [µg·h/mL]	Peak concentration ([2]; administration dose 30 mg/kg) [ng/mL]	MRT ([2]; male, ICR, 30 mg/kg) [h]	bioavailability ([2]; male, ICR, 30 mg/kg) [%]	half-life ([2]; male, ICR, 30 mg/kg) [h]	Compound	IC50 (cells; [8]) [nM]	also measured
6.91	2.35 (≈ 1.21 µg/mL)	–	–	–	–	–	–	–	COc1ccc(Cl)cc1-c1cc(C)ncc1C(=O)Nc1nc2ncc(-c3ccc(C#N)cc3)nc2s1 [Comparative Example 1, reference compound]	–	–
3.11	76.4 (≈ 38.8 µg/mL)	3.75	–	–	–	–	–	–	COc1cnc(Cl)cc1-c1cc(C)ncc1C(=O)Nc1nc2cnc(C3=CCC(O)CC3)cc2s1 (stereo not drawn) [Example 11]	11.2	IC50 [1, 7]: < 50 nM; IC50 (cells; [9]): < 100 nM; MRT ([2]; male, ICR, 25 mg/kg): 3.15 h; half-life ([2]; male, ICR, 25 mg/kg): 2.19 h; Time to peak ([2]; administration dose 25 mg/kg): 0.83 h; Area under curve (0-t; hr * ng/mL) ([2]; administration dose 25 mg/kg): 26.324 µg·h/mL; Peak concentration ([2]; administration dose 25 mg/kg): 7407 ng/mL
2.73	70.6 (≈ 36.1 µg/mL)	8.88	–	–	–	–	–	–	COc1cnc(Cl)cc1-c1cc(C)ncc1C(=O)Nc1nc2ncc(N3CCC(O)CC3)nc2s1 [Example 70]	14.2	IC50 [1, 7]: < 50 nM; IC50 (cells; [9]): < 100 nM; MRT ([2]; male, ICR, 100 mg/kg): 2.2 h; half-life ([2]; male, ICR, 100 mg/kg): 2.91 h; Time to peak ([2]; administration dose 100 mg/kg): 0.5 h; Area under curve (0-t; hr * ng/mL) ([2]; administration dose 100 mg/kg): 60.434 µg·h/mL; Peak concentration ([2]; administration dose 100 mg/kg): 22767 ng/mL
1.91	79.7 (≈ 40.3 µg/mL)	14.4	–	–	–	–	–	–	COc1cnc(Cl)cc1-c1cc(C)ncc1C(=O)Nc1nc2cnc(-c3c(C)cnn3C)cc2s1 [Example 87]	6.81	IC50 [1, 7]: < 50 nM; IC50 (cells; [9]): < 100 nM; MRT ([2]; male, ICR, 100 mg/kg): 3.45 h; half-life ([2]; male, ICR, 100 mg/kg): 2.12 h; Time to peak ([2]; administration dose 100 mg/kg): 0.25 h; Area under curve (0-t; hr * ng/mL) ([2]; administration dose 100 mg/kg): 300.735 µg·h/mL; Peak concentration ([2]; administration dose 100 mg/kg): 74833 ng/mL
1.84	4.61 (≈ 2.34 µg/mL)	10.5	1.67	293.209	42933	4.58	151	2.68	COc1cnc(Cl)cc1-c1cc(C)ncc1C(=O)Nc1nc2cnc(-c3c(C)nnn3C)cc2s1 [Example 175, 2'-chloro-N-(6-(1,4-dimethyl-1H-1,2,3-triazol-5-yl)thiazolo[4,5-c]pyridin-2-yl)-5'-methoxy-6-methyl-[4,4'-bipyridine]-3-carboxamide]	10	–
1.63	91.1 (≈ 47.6 µg/mL)	–	1.08	176.788	44133	2.88	–	1.75	COc1cnc(C(F)F)cc1-c1cc(C)ncc1C(=O)Nc1nc2cnc(-c3c(C)nnn3C)cc2s1 [Example 180, 2'-(difluoromethyl)-N-(6-(1,4-dimethyl-1H-1,2,3-triazol-5-yl)thiazolo[4,5-c]pyridin-2-yl) -5'-methoxy-6-methyl-[4,4'-bipyridine]-3-carboxamide]	5.62	Half-life (T1/2, min) [5]: ∞
3.41	58.7 (≈ 30.7 µg/mL)	14.4	1.67	581.387	52444	5.13	311	1.97	COc1cnc(C(F)F)cc1-c1cc(C)ncc1C(=O)Nc1nc2cnc(-c3c(C)noc3C)cc2s1 [Example 207]	8.57	–
3.31	61.8 (≈ 32.4 µg/mL)	28.9	0.75	385.297	89917	3.38	178	2.2	COc1cnc(Cl)cc1-c1cc(C)ncc1C(=O)Nc1nc2cnc(-c3c(C)nnn3C)c(F)c2s1 [Example 216]	< 1.52	–
